What follows are compounds tested against T1, human NaV1.8 (Homo sapiens, UniProt Q9Y5Y9) (assay: Electrophysiology: voltage-clamp recordings (whole-cell automated patch clamp, Qube384)). Conditions: HEK-NaV1.8 with b3 recombinant cell line, ambient room temperature, read-out: Potency category (human NaV1.8 IC50).
T1 construct: expressed in transfected cells; host or cells: HEK
Assay type: cell-based
Description: The following NaV1.8 recombinant cell line was used for recordings: HEK-NaV1.8 (NM_006514.1) with b3 (NM_018400.3).
Sodium currents were measured using the patch clamp technique in the whole-cell configuration using the Qube384 (Sophion A/S, Copenhagen, Denmark) automated voltage clamp platform. "Multi hole" plates were used for the cell line expressing NaV1.8 while "single hole" plates were used for the recombinant cell lines expressing the other subtypes. Appropriate filters (for minimum seal resistance and minimum current size) and series resistance compensation (for high quality sodium channel recordings) were applied. Data was collected at ambient room temperature.
The recording […] solution contained (in mM): NaCl 145 mM, KCl 4 mM, CaCl2 2 mM, MgCl2 1 mM, HEPES 10 mM, Glucose 10 mM, pH 7.4 (NaOH). The […] recording solution contained (in mM): CsF 120 mM, CsCl 20 mM, NaCl 10 mM, EGTA 10 mM, HEPES 10 mM, pH 7.2 (CsOH). Currents were recorded at 25 kHz sampling frequency and filtered at 5 kHz. Series resistance compensation was applied at 65%.
Vehicle (VEH) is the control condition where cells are exposed to 0.3 % DMSO without compound. All runs include VEH controls being exposed to the same voltage protocols to assess non-compound related phenomena such as run down and then used to isolate compound dependent effects on currents.
To check for state-dependence inhibition, the following voltage-sequence was applied every 20 seconds: From a resting membrane potential of-120 mV, the first test pulse (P1; 20 ms to -10 mV) was applied to check for channels in the Resting State followed by a brief recovery (20 ms to -120 mV), then holding the membrane voltage to V1/2 (4 seconds at voltage to obtain half the channel at Rest and half Inactivated) with a subsequent second test pulse (P2; 20 ms to -10 mV) to check for channels in the Inactivated State, followed by another brief recovery (20 ms to -120 mV) and a final third test pulse (P3; 20 ms to -10 mV) to check for recovered channels.
To check for frequency-dependent inhibition, a 10 Hz protocol and a 20 Hz protocol were applied; namely,
From a resting membrane potential of -120 mV, 40-pulses (10 ms to -10 mV) was applied at 10 Hz (at 100 ms between pulses) and then at 20 Hz (at 50 ms between pulses).
Each parameter was recorded (P1, P2, P3, P40 from 10Hz and P40 from 20Hz) during a control period (lasting ~ 5 minutes) when establishing the baseline and during compound period (lasting ~ 12 minutes) when test compound (or vehicle) was applied. For each parameter, the value at the end of the compound period was normalized to the vehicle baseline; as follows Normalized Inhibition (NormCPD) = (CPD Valueend CPD period)/(VEH Valueend Control Period) [formula]
To adjust for any variance in the Na^+ current signal during the compound period (owing to cumulative inactivation independent of compound or shifts in biophysics over time), a dedicated segment of the recording wells in each 384 plate were dedicated to having only vehicle exposure. These vehicle-only recordings were used to correct for any apparent "run-up" or "run-down" in the experiment. Normalized Inhibition (NormVEH) = (VEH Valueend CPD period)/(VEH Valueend Control Period) [formula]
The adjusted inhibition was calculated as follows: % Inhibitioncorrected = 100 × (NormCPD −NormVEH)/(100−NormVEH) [formula]
Percent inhibition was determined and IC50 values were calculated using a 4 parameter logistic model within XLFit Software (IDBS, Boston MA): % Inhibitioncorrected = A + ((B−A))/((1 + (((x)/(C)))^D) [formula] where A and B are the maximal and minimum inhibition respectively, C is the IC50 concentration and D is the (Hill) slope.

T1 sequence (Q9Y5Y9 whole entry): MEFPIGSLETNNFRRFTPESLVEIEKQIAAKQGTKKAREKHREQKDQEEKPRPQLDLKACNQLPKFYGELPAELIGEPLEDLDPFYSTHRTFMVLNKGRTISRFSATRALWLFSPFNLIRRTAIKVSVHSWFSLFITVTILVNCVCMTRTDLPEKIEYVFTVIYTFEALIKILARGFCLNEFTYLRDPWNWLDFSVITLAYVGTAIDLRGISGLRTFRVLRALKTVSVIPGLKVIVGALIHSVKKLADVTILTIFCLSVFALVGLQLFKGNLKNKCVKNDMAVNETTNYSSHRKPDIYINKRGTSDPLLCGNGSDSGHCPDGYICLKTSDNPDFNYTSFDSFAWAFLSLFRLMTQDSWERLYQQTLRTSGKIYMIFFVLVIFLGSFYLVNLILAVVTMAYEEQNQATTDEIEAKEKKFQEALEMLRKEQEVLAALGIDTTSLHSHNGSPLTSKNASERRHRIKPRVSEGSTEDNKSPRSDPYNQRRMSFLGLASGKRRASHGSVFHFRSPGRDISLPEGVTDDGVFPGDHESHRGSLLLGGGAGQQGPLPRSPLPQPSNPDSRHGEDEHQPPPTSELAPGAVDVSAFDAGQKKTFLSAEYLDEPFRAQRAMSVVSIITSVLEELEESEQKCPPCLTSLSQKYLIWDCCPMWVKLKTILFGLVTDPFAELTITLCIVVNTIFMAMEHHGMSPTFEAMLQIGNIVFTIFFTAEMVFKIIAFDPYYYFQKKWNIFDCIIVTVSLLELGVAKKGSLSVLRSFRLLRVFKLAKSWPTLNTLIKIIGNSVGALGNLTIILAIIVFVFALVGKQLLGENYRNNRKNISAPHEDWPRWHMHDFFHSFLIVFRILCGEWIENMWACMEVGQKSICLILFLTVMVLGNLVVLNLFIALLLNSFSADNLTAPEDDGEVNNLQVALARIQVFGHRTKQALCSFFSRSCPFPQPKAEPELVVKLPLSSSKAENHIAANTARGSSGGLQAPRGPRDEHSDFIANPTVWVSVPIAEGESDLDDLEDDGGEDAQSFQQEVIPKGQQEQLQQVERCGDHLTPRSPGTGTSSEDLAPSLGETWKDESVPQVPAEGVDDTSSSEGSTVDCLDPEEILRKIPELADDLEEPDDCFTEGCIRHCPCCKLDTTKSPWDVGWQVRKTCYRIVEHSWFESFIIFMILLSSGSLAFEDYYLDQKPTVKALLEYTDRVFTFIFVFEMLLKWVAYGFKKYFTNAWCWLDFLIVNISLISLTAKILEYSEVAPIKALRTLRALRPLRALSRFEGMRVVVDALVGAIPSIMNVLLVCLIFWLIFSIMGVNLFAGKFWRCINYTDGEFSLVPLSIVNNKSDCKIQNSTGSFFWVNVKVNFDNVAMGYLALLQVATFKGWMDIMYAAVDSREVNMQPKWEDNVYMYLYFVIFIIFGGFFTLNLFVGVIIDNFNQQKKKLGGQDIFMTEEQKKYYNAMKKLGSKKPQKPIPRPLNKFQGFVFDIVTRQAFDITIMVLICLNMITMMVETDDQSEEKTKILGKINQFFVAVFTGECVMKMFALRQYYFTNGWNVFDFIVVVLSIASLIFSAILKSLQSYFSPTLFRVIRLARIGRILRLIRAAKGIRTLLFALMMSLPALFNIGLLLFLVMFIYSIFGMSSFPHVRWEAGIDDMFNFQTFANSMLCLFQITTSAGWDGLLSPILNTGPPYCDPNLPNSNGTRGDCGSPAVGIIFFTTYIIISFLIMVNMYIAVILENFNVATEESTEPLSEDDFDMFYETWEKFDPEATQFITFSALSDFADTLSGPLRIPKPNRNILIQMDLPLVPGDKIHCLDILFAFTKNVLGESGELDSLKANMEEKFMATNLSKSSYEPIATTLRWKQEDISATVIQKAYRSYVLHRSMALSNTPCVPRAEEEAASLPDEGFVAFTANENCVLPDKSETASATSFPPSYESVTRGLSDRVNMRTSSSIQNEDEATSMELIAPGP
T1 sequence (Q9NY72 23-215 partner): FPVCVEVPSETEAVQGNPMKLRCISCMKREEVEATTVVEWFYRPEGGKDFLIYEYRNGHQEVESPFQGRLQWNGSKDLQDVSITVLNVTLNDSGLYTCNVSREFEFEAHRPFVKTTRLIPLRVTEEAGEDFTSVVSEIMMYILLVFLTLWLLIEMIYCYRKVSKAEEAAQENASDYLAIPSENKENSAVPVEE

**Q.** How did the IC50 turn out when `NS(=O)(=O)c1cccc(NC(=O)c2c3ccccc3nn2CC2CCCO2)c1` (racemic) [SC-16, N-(3-sulfamoylphenyl)-2-((tetrahydrofuran-2-yl)methyl)-2H-indazole-3-carboxamide] was run?
**A.** 1000 to 10000 nM

**Q.** Which IC50 does the source give for `C[C@@H](C1CCCCC1)n1nc2ccccc2c1C(=O)Nc1cccc(S(C)(=O)=O)c1` (single isomer, unassigned) [SC-74a] here?
**A.** 100 to 1000 nM

**Q.** For `C[C@H](C1CCCCC1)n1nc2ccccc2c1C(=O)Nc1cccc(S(C)(=O)=O)c1` (single isomer, unassigned) [SC-74b], which IC50 is on record?
**A.** 1000 to 10000 nM

**Q.** With `Cc1ccc(Cl)c2c(C(=O)Nc3ccnc(C(N)=O)c3)n(CC3CCC(F)(F)C3)nc12` (single isomer, unassigned) [SC-82a, N-(2-carbamoylpyridin-4-yl)-4-chloro-2-((3,3-difluorocyclopentyl)methyl)-7-methyl-2H-indazole-3-carboxamide] as the compound, how does the IC50 read?
**A.** ≤ 100 nM

**Q.** How did the IC50 turn out when `Cc1ccc(Cl)c2c(C(=O)Nc3ccnc(C(N)=O)c3)n(CC3CCC(F)(F)C3)nc12` (single isomer, unassigned) [SC-82b, N-(2-carbamoylpyridin-4-yl)-4-chloro-2-((3,3-difluorocyclopentyl)methyl)-7-methyl-2H-indazole-3-carboxamide] was run?
**A.** ≤ 100 nM

**Q.** How did the IC50 turn out when `Cc1ccc(Cl)c2c(C(=O)Nc3cccc(S(N)(=O)=O)c3)n(CC3CCCCO3)nc12` (single isomer, unassigned) [SC-84a, 4-chloro-7-methyl-N-(3-sulfamoylphenyl)-2-((tetrahydro-2H-pyran-2-yl)methyl)-2H-indazole-3-carboxamide] was run?
**A.** ≤ 100 nM

**Q.** `Cc1cccc2c(C(=O)Nc3ccnc(S(N)(=O)=O)c3)n(C[C@H]3CCCCO3)nc12` (single isomer, unassigned) [SC-88b] was tested. Which IC50 did it give?
**A.** ≤ 100 nM

**Q.** With `O=C(Nc1ccnc(O)c1)c1c2ccc(F)cc2nn1CC1CCCCC1` [SC-05, 2-(cyclohexylmethyl)-6-fluoro-N-(2-hydroxypyridin-4-yl)indazole-3-carboxamide] as the compound, how does the IC50 read?
**A.** ≤ 100 nM

**Q.** With `O=C(Nc1ccnc(O)c1)c1c2ccc(F)cc2nn1CC1CCC(F)(F)CC1` [SC-06, 2-((4,4-difluorocyclohexyl)methyl)-6-fluoro-N-(2-hydroxypyridin-4-yl)-2H-indazole-3-carboxamide] as the compound, how does the IC50 read?
**A.** 100 to 1000 nM

**Q.** `O=C(Nc1ccnc(O)c1)c1c2ccccc2nn1CC1CCCCC1` [SC-10, 2-(cyclohexylmethyl)-N-(2-hydroxypyridin-4-yl)-2H-indazole-3-carboxamide] was tested. Which IC50 did it give?
**A.** 100 to 1000 nM

**Q.** `CS(=O)(=O)c1cccc(NC(=O)c2c3ccc(F)cc3nn2CC2CCCCC2)c1` [SC-11, 2-(cyclohexylmethyl)-6-fluoro-N-(3-methylsulfonylphenyl)indazole-3-carboxamide] was tested. Which IC50 did it give?
**A.** ≤ 100 nM

**Q.** `O=C(Nc1cc[nH]c(=O)c1)c1c2ccccc2nn1CC1CCC1` [SC-12, 2-(cyclobutylmethyl)-N-(2-oxo-1,2-dihydropyridin-4-yl)-2H-indazole-3-carboxamide] was tested. Which IC50 did it give?
**A.** 1000 to 10000 nM

**Q.** How did the IC50 turn out when `O=C(Nc1ccnc(O)c1)c1c2ccccc2nn1CC1CCCCCC1` [SC-13, 2-(cyclohcptylmethyl)-N-(2-hydroxypyridin-4-yl)indazole-3-carboxamide] was run?
**A.** 100 to 1000 nM

**Q.** For `CS(=O)(=O)c1cccc(NC(=O)c2c3ccccc3nn2CC2CCOCC2)c1` [SC-14, N-(3-methylsulfonylphenyl)-2-(oxan-4-ylmethyl)indazole-3-carboxamide], which IC50 is on record?
**A.** 1000 to 10000 nM

**Q.** Which IC50 does the source give for `NS(=O)(=O)c1cccc(NC(=O)c2c3ccccc3nn2CC2CCOCC2)c1` [SC-15, N-(3-sulfamoylphenyl)-2-((tetrahydro-2H-pyran-4-yl)methyl)-2H-indazole-3-carboxamide] here?
**A.** 100 to 1000 nM

**Q.** `NC(=O)c1cccc(NC(=O)c2c3ccccc3nn2CC2CCCCC2)c1` [SC-17, N-(3-carbamoylphenyl)-2-(cyclohexylmethyl)indazole-3-carboxamide] was tested. Which IC50 did it give?
**A.** ≤ 100 nM

**Q.** For `C[S+]([O-])c1cccc(NC(=O)c2c3ccc(F)cc3nn2CC2CCCCC2)c1` (centres unmarked) [SC-19, 2-(cyclohexylmethyl)-6-fluoro-N-(3-(methylsulfinyl)phenyl)-2H-indazole-3-carboxamide], which IC50 is on record?
**A.** 100 to 1000 nM

**Q.** How did the IC50 turn out when `O=C(Nc1ccnc(O)c1)c1c2cccc(F)c2nn1CC1CCCCC1` [SC-20, 2-(cyclohexylmethyl)-7-fluoro-N-(2-hydroxypyridin-4-yl)indazole-3-carboxamide] was run?
**A.** 100 to 1000 nM

**Q.** Which IC50 does the source give for `NC(=O)c1cc(NC(=O)c2c3ccccc3nn2CC2CCOCC2)ccc1F` [SC-21, N-(3-Carbamoyl-4-fluorophenyl)-2-((tetrahydro-2H-pyran-4-yl)methyl)-2H-indazole-3-carboxamide] here?
**A.** 1000 to 10000 nM

**Q.** `CS(=O)(=O)c1cccc(NC(=O)c2c3ccccc3nn2CC2CCC(F)(F)CC2)c1` [SC-22, 2-[(4,4-difluorocyclohexyl)methyl]-N-(3-methylsulfonylphenyl)indazole-3-carboxamide] was tested. Which IC50 did it give?
**A.** 100 to 1000 nM

**Q.** With `O=C(Nc1ccnc(O)c1)c1c2ccccc2nn1CC1CCC(F)(F)CC1` [SC-24, 2-[(4,4-difluorocyclohexyl)methyl]-N-(2-hydroxypyridin-4-yl)indazole-3-carboxamide] as the compound, how does the IC50 read?
**A.** 1000 to 10000 nM

**Q.** How did the IC50 turn out when `NC(=O)c1cc(NC(=O)c2c3ccccc3nn2CC2CCC(F)(F)CC2)ccc1F` [SC-25, N-(3-carbamoyl-4-fluorophenyl)-2-[(4,4-difluorocyclohexyl)methyl]indazole-3-carboxamide] was run?
**A.** 100 to 1000 nM

**Q.** `CC(C)(O)c1cccc(NC(=O)c2c3ccccc3nn2CC2CCCCC2)c1` [SC-26, 2-(cyclohexylmethyl)-N-(3-(2-hydroxypropan-2-yl)phenyl)-2H-indazole-3-carboxamide] was tested. Which IC50 did it give?
**A.** 1000 to 10000 nM

**Q.** For `NS(=O)(=O)c1cccc(NC(=O)c2c3ccc(F)cc3nn2CC2CCCCC2)c1` [SC-28, 2-(cyclohexylmethyl)-6-fluoro-N-(3-sulfamoylphenyl)indazole-3-carboxamide], which IC50 is on record?
**A.** ≤ 100 nM

**Q.** How did the IC50 turn out when `O=C(Nc1ccnc(O)c1)c1c2cc(F)ccc2nn1CC1CCCCC1` [SC-32, 2-(cyclohexylmethyl)-5-fluoro-N-(2-hydroxypyridin-4-yl)indazole-3-carboxamide] was run?
**A.** 100 to 1000 nM

**Q.** With `CS(=O)(=O)n1cc(NC(=O)c2c3ccccc3nn2CC2CCCCC2)cn1` [SC-36, 2-(cyclohexylmethyl)-N-(1-(methylsulfonyl)-1H-pyrazol-4-yl)-2H-indazole-3-carboxamide] as the compound, how does the IC50 read?
**A.** 100 to 1000 nM

**Q.** Which IC50 does the source give for `CS(=O)(=O)c1cccc(NC(=O)c2c3ccccc3nn2CC2CCCCC2)c1` [SC-37, 2-(cyclohexylmethyl)-N-(3-methylsulfonylphenyl)indazole-3-carboxamide] here?
**A.** ≤ 100 nM

**Q.** How did the IC50 turn out when `NS(=O)(=O)c1cccc(NC(=O)c2c3ccc(F)cc3nn2CC2CCC(F)(F)CC2)c1` [SC-38, 2-[(4,4-difluorocyclohexyl)methyl]-6-fluoro-N-(3-sulfamoylphenyl)indazole-3-carboxamide] was run?
**A.** ≤ 100 nM

**Q.** How did the IC50 turn out when `Cn1ccc(NC(=O)c2c3ccccc3nn2CC2CCCCC2)cc1=O` [SC-39, 2-(cyclohexylmethyl)-N-(1-methyl-2-oxo-1,2-dihydropyridin-4-yl)-2H-indazole-3-carboxamide] was run?
**A.** 1000 to 10000 nM

**Q.** For `O=C(Nc1ccnc(O)c1)c1c2cccc(C(F)(F)F)c2nn1CC1CCCCC1` [SC-42, 2-(cyclohexylmethyl)-N-(2-hydroxypyridin-4-yl)-7-(trifluoromethyl)indazole-3-carboxamide], which IC50 is on record?
**A.** ≤ 100 nM

**Q.** With `Cc1cccc2c(C(=O)Nc3cc[nH]c(=O)c3)n(CC3CCCCC3)nc12` [SC-43, 2-(cyclohexylmethyl)-7-methyl-N-(2-oxo-1,2-dihydropyridin-4-yl)-2H-indazole-3-carboxamide] as the compound, how does the IC50 read?
**A.** ≤ 100 nM

**Q.** `CS(=O)(=O)c1cccc(NC(=O)c2c3cccc(C(F)(F)F)c3nn2CC2CCCCC2)c1` [SC-44, 2-(cyclohexylmethyl)-N-(3-methylsulfonylphenyl)-7-(trifluoromethyl)indazole-3-carboxamide] was tested. Which IC50 did it give?
**A.** ≤ 100 nM
